From patent US20140315889A1, “HYDROXAMATE DERIVATIVES FOR HDAC INHIBITOR, AND THE PHARMACEUTICAL COMPOSITION COMPRISING THEREOF” (CHONG KUN DANG PHARMACEUTICAL CORP., priority 2011, published 2014)

Tests used:
human recombinant HDAC6 = biological target: T1, human recombinant HDAC6 (Homo sapiens, UniProt Q9UBN7); test: HDAC enzyme activity test, HDAC6; format: biochemical; settings: Table 12; for Selectivity for HDAC6, HD1/HD6: ratio HDAC1 IC50 / HDAC6 IC50; for IC50: read-out: Inhibition ability (IC50) HDAC6
T1 construct: purchased Calibiochem Co. (so in the source) 382180
T1 sequence (Q9UBN7 1-1215): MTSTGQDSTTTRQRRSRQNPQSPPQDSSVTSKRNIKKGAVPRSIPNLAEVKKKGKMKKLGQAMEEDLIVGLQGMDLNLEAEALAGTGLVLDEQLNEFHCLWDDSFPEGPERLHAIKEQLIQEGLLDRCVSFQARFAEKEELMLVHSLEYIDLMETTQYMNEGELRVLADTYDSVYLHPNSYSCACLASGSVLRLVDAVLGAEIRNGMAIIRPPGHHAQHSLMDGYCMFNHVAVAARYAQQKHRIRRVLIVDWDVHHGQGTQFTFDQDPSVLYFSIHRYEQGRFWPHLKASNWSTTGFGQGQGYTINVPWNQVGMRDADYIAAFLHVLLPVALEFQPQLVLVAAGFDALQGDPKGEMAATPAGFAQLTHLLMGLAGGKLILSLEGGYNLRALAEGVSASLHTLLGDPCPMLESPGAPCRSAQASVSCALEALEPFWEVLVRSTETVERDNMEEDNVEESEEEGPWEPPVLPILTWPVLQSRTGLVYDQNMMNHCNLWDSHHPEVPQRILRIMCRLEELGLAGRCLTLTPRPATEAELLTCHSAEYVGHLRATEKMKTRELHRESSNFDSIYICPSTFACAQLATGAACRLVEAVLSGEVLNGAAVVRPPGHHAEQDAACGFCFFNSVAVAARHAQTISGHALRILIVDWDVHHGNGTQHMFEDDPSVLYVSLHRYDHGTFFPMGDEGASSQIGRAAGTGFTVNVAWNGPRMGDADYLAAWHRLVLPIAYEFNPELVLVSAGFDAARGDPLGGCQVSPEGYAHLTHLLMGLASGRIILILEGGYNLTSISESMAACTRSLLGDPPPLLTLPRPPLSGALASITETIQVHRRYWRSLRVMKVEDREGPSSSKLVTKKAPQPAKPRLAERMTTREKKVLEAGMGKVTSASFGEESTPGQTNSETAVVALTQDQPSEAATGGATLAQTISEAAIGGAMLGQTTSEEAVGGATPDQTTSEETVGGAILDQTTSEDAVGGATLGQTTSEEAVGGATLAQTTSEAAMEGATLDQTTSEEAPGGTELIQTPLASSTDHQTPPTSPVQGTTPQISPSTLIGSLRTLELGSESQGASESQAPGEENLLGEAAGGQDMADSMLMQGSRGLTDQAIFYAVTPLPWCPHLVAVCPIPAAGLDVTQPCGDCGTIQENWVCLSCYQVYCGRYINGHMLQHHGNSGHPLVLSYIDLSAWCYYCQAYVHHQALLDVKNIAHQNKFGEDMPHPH
Description: (§1) Then, 0.3 μg of enzyme and 10 μM of substrate per well were added, reacted at 30° C. for 60 minutes. Thereto, Fluor de Lys® Developer II (BML-KI176) was added and reacted for 30 minutes. […] From the data, the respective IC50 were calculated by GraphPad Prism 4.0 program.

Human recombinant HDAC1 = biological target: T2, Human recombinant HDAC1 (Homo sapiens, UniProt Q13547); test: HDAC enzyme activity test, HDAC1; format: biochemical; settings: Table 12; read-out: Inhibition ability (IC50) HDAC1
T2 construct: purchased Enzo Life Science Co. (named for the kit; assigned to the enzyme from the BML- catalogue prefix) BML-SE456
Description: as §1

T2 sequence (Q13547 whole entry): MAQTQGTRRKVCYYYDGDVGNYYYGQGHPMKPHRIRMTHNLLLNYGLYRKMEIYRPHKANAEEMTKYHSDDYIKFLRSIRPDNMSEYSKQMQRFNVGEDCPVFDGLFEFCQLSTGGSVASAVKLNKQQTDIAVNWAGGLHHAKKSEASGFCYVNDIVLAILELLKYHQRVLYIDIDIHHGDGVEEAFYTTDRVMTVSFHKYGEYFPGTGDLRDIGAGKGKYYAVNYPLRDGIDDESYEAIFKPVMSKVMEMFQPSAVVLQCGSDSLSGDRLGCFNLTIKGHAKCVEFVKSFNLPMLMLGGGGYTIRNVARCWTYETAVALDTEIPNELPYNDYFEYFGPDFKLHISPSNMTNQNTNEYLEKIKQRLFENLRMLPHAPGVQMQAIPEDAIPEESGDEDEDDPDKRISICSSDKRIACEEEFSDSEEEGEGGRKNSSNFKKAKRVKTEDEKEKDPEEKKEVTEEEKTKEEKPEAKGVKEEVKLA

Compound	Selectivity for HDAC6, HD1/HD6 (human recombinant HDAC6)	IC50 (human recombinant HDAC6) [nM]	IC50 (Human recombinant HDAC1) [µM]
O=C(CCCCCn1c2c(c3ccccc31)C(=O)C(CN1CCOCC1)CC2)NO (stereo not drawn) [Compound 193, N-hydroxy-6-(3-(morpholinomethyl)-4-oxo-1,2,3,4-tetrahydrocarbazol-9-yl)hexanamide]	464.3	7.5	3.5
O=C(NO)c1ccc(Cn2c3c(c4ccccc42)C(=O)CCC3)cc1 [Compound 99, N-hydroxy-4-((4-oxo-1,2,3,4-tetrahydrocarbazol-9-yl)methyl)benzamide]	163.9	16.4	2.68
CN1CCN(CC2C(=O)c3c(n(Cc4ccc(C(=O)NO)cc4)c4ccc(F)cc34)CC2(C)C)CC1 (stereo not drawn) [Compound 209, 4-((6-fluoro-2,2-dimethyl-3-((4-methylpiperazin-1-yl)methyl)-4-oxo-1,2,3,4-tetrahydrocarbazol-9-yl)methyl)-N-hydroxybenzamide]	148.8	2.5	0.365
O=C(NO)c1ccc(Cn2c3c(c4ccccc42)C(=O)C(CN2CCCC2)CC3)cc1 (stereo not drawn) [Compound 88, N-hydroxy-4-((4-oxo-3-(pyrrolidin-1-ylmethyl)-1,2,3,4-tetrahydrocarbazol-9-yl)methyl)benzamide]	358.7	11.1	3.97
O=C(CCCCCn1c2c(c3ccccc31)C(=O)C(CN1CCC(F)(F)C1)CC2)NO (stereo not drawn) [Compound 204, 6-(3-((3,3-difluoropyrrolidin-1-yl)methyl)-4-oxo-1,2,3,4-tetrahydrocarbazol-9-yl)-N-hydroxyhexanamide]	40	48.7	1.95
COC[C@@H]1CCCN1CCN1CCc2c(c3cc(F)ccc3n2Cc2ccc(C(=O)NO)cc2)C1=O [Compound 285, (S)-4-((8-fluoro-2-(2-(2-(methoxymethyl)pyrrolidin-1-yl)ethyl)-1-oxo-1,2,3,4-tetrahydropyrido[4,3-b]indol-5-yl)methyl)-N-hydroxybenzamide]	588.2	22.5	13.2
Cc1nn(Cc2ccc(C(=O)NO)cc2)c2c1C(=O)CC(C)(C)C2 [Compound 101, N-hydroxy-4-((3,6,6-trimethyl-4-oxo-4,5,6,7-tetrahydroindazol-1-yl)methyl)benzamide]	135.1	12.2	1.65
Cc1cc2c(n1CCCCCCC(=O)NO)CCCC2=O [Compound 346, N-hydroxy-7-(2-methyl-4-oxo-4,5,6,7-tetrahydroindol-1-yl)heptanamide]	10.2	25	0.255
CC1CN(CC2CCc3c(c4cc(F)ccc4n3CCCCCC(=O)NO)C2=O)CC(C)O1 (stereo not drawn) [Compound 323, 6-(3-((2,6-dimethylmorpholino)methyl)-6-fluoro-4-oxo-1,2,3,4-tetrahydrocarbazol-9-yl)-N-hydroxyhexanamide]	102.2	87.8	8.97
CC(C)(C)OC(=O)N1CCN(CC2CCc3c(c4cc(F)ccc4n3CCCCCC(=O)NO)C2=O)CC1 (stereo not drawn) [Compound 324, tert-butyl 4-((6-fluoro-9-(6-(hydroxyamino)-6-oxohexyl)-4-oxo-2,3,4,9-tetrahydro-1H-carbazol-3-yl)methyl)piperazine-1-carboxylate]	113.2	103	11.6
O=C(NO)c1ccc(Cn2c3c(c4cc(F)ccc42)C(=O)CCC3)cc1 [Compound 157, 4-((3-fluoro-5-oxo-5,6,7,8-tetrahydrocarbazol-9-yl)methyl)-N-hydroxybenzamide]	326.2	11.1	3.61
Cc1cc2c(n1CCCCCC(=O)NO)CC(C)(C)CC2=O [Compound 345, N-hydroxy-6-(2,6,6-trimethyl-4-oxo-4,5,6,7-tetrahydroindol-1-yl)hexanamide]	14.3	28.1	0.402
Cc1cn(Cc2ccc(C(=O)NO)cc2)c2c1C(=O)NCC2 [Compound 232, N-hydroxy-4-((3-methyl-4-oxo-4,5,6,7-tetrahydropyrrolo[3,2-c]pyridin-1-yl)methyl)benzamide]	107.4	45	4.84
Cc1nccn1CC1CCc2c(c3cc(F)ccc3n2Cc2ccc(C(=O)NO)cc2)C1=O (stereo not drawn) [Compound 158, 4-((6-fluoro-3-((2-methyl-1H-imidazol-1-yl)methyl)-4-oxo-1,2,3,4-tetrahydrocarbazol-9-yl)methyl)-N-hydroxybenzamide]	602.7	8.52	5.14
O=C(NO)c1ccc(Cn2c3c(c4cc(F)ccc42)C(=O)N(CCN2CCC[C@@H]2CO)CC3)cc1 [Compound 289, (R)-4-((8-fluoro-2-(2-(2-(hydroxymethyl)pyrrolidin-1-yl)ethyl)-1-oxo-1,2,3,4-tetrahydropyrido[4,3-b]indol-5-yl)methyl)-N-hydroxybenzamide]	691.2	11.5	7.98
O=C(NO)c1ccc(Cn2c3c(c4ccccc42)C(=O)C(CN2CCCCC2)CC3)cc1 (stereo not drawn) [Compound 86, N-hydroxy-4-((4-oxo-3-(piperidin-1-ylmethyl)-1,2,3,4-tetrahydrocarbazol-9-yl)methyl)benzamide]	286.1	9.94	2.84
O=C(NO)c1ccc(Cn2c3c(c4ccccc42)C(=O)C(CN2CC(F)(F)C2)CC3)cc1 (stereo not drawn) [Compound 121, 4-((3-((3,3-difluoroazetidin-1-yl)methyl)-4-oxo-1,2,3,4-tetrahydrocarbazol-9-yl)methyl)-N-hydroxybenzamide]	437.3	8.51	3.72
CC1(C)CC(=O)c2c(n(Cc3ccc(C(=O)NO)cc3)c3ccc(Br)cc23)C1 [Compound 45, 4-((6-bromo-2,2-dimethyl-4-oxo-1,2,3,4-tetrahydrocarbazol-9-yl)methyl)-N-hydroxybenzamide]	42.1	130	5.48
O=C(NO)c1ccc(Cn2c3c(c4cc(F)ccc42)C(=O)C(CN2CC[C@@H](F)C2)CC3)cc1 (stereo partly drawn) [Compound 283, 4-((6-fluoro-3-(((R)-3-fluoropyrrolidin-1-yl)methyl)-4-oxo-1,2,3,4-tetrahydrocarbazol-9-yl)methyl)-N-hydroxybenzamide]	1420.6	8.29	11.8
CN1CCN(CC2CCc3c(c4ccccc4n3CCCCCC(=O)NO)C2=O)CC1 (stereo not drawn) [Compound 205, N-hydroxy-6-(3-((4-methylpiperazin-1-yl)methyl)-4-oxo-1,2,3,4-tetrahydrocarbazol-9-yl)hexanamide]	69	46	3.17
O=C(NO)c1ccc(Cn2c3c(c4cc(F)ccc42)C(=O)N(CCN2CCC(CO)CC2)CC3)cc1 [Compound 286, 4-((8-fluoro-2-(2-(4-(hydroxymethyl)piperidin-1-yl)ethyl)-1-oxo-1,2,3,4-tetrahydropyrido[4,3-b]indol-5-yl)methyl)-N-hydroxybenzamide]	607	17.4	10.6
CC1(C)CC(=O)c2c(n(Cc3ccc(C(=O)NO)cc3)c3ccc(F)c(F)c23)C1 [Compound 73, 4-((5,6-difluoro-2,2-dimethyl-4-oxo-1,2,3,4-tetrahydrocarbazol-9-yl)methyl)-N-hydroxybenzamide]	52.1	75.1	3.91
